Results on eleven compounds are retold here after patent US11098042B2, “Inhibitors of influenza virus replication and uses thereof” (SUNSHINE LAKE PHARMA CO., LTD., priority 2017, dated 2021).

In one data set the test system is virus H1N1 A/Weiss/43. As to the kind of experiment: microbe, parasite or virus in culture. It is filed as cell-based. To be noted: Influenza A virus, 120 h; inhibition of CPE of H1N1 A/Weiss/43 in MDCK cells, 5 days, CCK-8.
A short description of a further data set: in vivo. The following applies: Sprague-Dawley (SD), rat.

Experimental for in vivo: Pharmacokinetic characteristics of the compounds of the invention in SD rat were evaluated. The compounds disclosed herein were administered in form of a saline solution containing 5% DMSO, 5% Kolliphor HS 15 and 90% Saline. For intravenous administration (iv), the animals were administered with a dose of 1 mg/kg, and blood samples (0.3 mL) were collected at the time points of 0.083, 0.25, 0.5, 1.0, 2.0, 5.0, 7.0 and 24 h after drug administration, then each blood sample was processed to separate plasma by centrifugation at 3000 rpm or 4000 rpm for 10 minutes. […] Plasma samples were collected and stored at −20° C. or −70° C. until LC/MS/MS analysis.

`O=C(O)C1C2CCC(CC2)C1Nc1cc(-c2ccco2)nc(-c2n[nH]c3ncc(Cl)cc23)n1` (racemic) [Example 1, (+/−)-trans-3-((2-(5-chloro-1H-pyrazolo[3,4-b]pyridin-3-yl)-6-(furan-2-yl)pyrimidin-4-yl)amino)bicyclo[2.2.2]octane-2-carboxylic Acid] registered an EC50 in the data set on virus H1N1 A/Weiss/43 of 59 pM.
In the data set “in vivo” (iv, 1 mg/kg), `O=C(O)C1C2CCC(CC2)C1Nc1nc(-c2n[nH]c3ncc(Cl)cc23)nc(-c2ccco2)c1F` (racemic) [Example 2, (+/−)-trans-3-((2-(5-chloro-1H-pyrazolo[3,4-b]pyridin-3-yl)-5-fluoro-6-(furan-2-yl)pyrimidin-4-yl)amino)bicyclo[2.2.2]octane-2-carboxylic Acid] yielded an AUC(0-inf) of 910 ng·h/mL, an AUC(0-t) of 909 ng·h/mL and a clearance of 18.5 mL/min/kg. In “in vivo” (po, 5 mg/kg), the AUC(0-inf) stood at 1060 ng·h/mL and the AUC(0-t) was determined as 1060 ng·h/mL. Also, the EC50 with virus H1N1 A/Weiss/43 is 54 pM.
Consider `Cn1ccc2c(NC3C4CCC(CC4)C3C(=O)O)nc(-c3n[nH]c4ncc(Cl)cc34)nc21` (racemic) [Example 3, (+/−)-trans-3-((2-(5-chloro-1H-pyrazolo[3,4-b]pyridin-3-yl)-7-methyl-7H-pyrrolo[2,3-d]pyrimidin-4-yl)amino)bicyclo[2.2.2]octane-2-carboxylic Acid], for which a half-maximal response in the data set with virus H1N1 A/Weiss/43 (EC50) required 390 pM.
Consider `O=C(O)C1C2CCC(CC2)C1Nc1cc(-c2cc3ccccc3o2)nc(-c2n[nH]c3ncc(Cl)cc23)n1` (racemic) [Example 14, (+/−)-trans-3-((6-(benzofuran-2-yl)-2-(5-chloro-1H-pyrazolo[3,4-b]pyridin-3-yl)pyrimidin-4-yl)amino)bicyclo[2.2.2]octane-2-carboxylic Acid], for which, in the data set on virus H1N1 A/Weiss/43, the EC50 is 696 pM. Against the preceding compound, the EC50 is about 1.8-fold higher.
Same read-out and setting: next, `O=C(O)C1C2CCC(CC2)C1Nc1cc(-c2ccccc2)nc(-c2n[nH]c3ncc(Cl)cc23)n1` (racemic) [Example 16, (+/−)-trans-3-((2-(5-chloro-1H-pyrazolo[3,4-b]pyridin-3-yl)-6-phenylpyrimidin-4-yl)amino)bicyclo[2.2.2]octane-2-carboxylic Acid]: 140 pM.
Still for that read-out and setting: next, `O=C(O)C1C2CCC(CC2)C1Nc1cc(-c2cccs2)nc(-c2n[nH]c3ncc(Cl)cc23)n1` (racemic) [Example 29, (+/−)-trans-3-((2-(5-chloro-1H-pyrazolo[3,4-b]pyridin-3-yl)-6-(thiophen-2-yl)pyrimidin-4-yl)amino)bicyclo[2.2.2]octane-2-carboxylic Acid]: 203 pM; `O=C(O)C1C2CCC(CC2)C1Nc1cc(C2CC2)nc(-c2n[nH]c3ncc(Cl)cc23)n1` (racemic) [Example 30, (+/−)-trans-3-((2-(5-chloro-1H-pyrazolo[3,4-b]pyridin-3-yl)-6-cyclopropylpyrimidin-4-yl)amino)bicyclo[2.2.2]octane-2-carboxylic Acid]: 350 pM.
The same measure, in the same setting: next, `O=C(O)C1C2CCC(CC2)C1Nc1cc(-c2ccc3ccccc3c2)nc(-c2n[nH]c3ncc(Cl)cc23)n1` (racemic) [Example 31, (+/−)-trans-3-((2-(5-chloro-1H-pyrazolo[3,4-b]pyridin-3-yl)-6-(naphthalene-2-yl)pyrimidin-4-yl)amino)bicyclo[2.2.2]octane-2-carboxylic Acid]: 513 pM; `CC(C)(C)[C@@H](CC(=O)O)Nc1nc(-c2n[nH]c3ncc(Cl)cc23)nc(-c2ccco2)c1F` [Example 4, (R)-3-((2-(5-chloro-1H-pyrazolo[3,4-b]pyridin-3-yl)-5-fluoro-6-(furan-2-yl)pyrimidin-4-yl)amino)-4,4-dimethylpentanoic Acid]: 75 pM.
Consider `O=C(O)[C@H]1C2CCC(CC2)[C@@H]1Nc1cc(-c2ccc(C3CC3)o2)nc(-c2n[nH]c3ncc(F)cc23)n1` [Example 15, (2S,3S)-3-((6-(5-cyclopropylfuran-2-yl)-2-(5-fluoro-1H-pyrazolo[3,4-b]pyridin-3-yl)pyrimidin-4-yl)amino)bicyclo[2.2.2]octane-2-carboxylic Acid], for which the concentration giving a half-maximal response (EC50) in the data set with virus H1N1 A/Weiss/43 turned out to be 303 pM.
On to `CC(C)n1ccc2c(N[C@H]3C4CCC(CC4)[C@@H]3C(=O)O)nc(-c3n[nH]c4ncc(F)cc34)nc21` [Example 34, (2S,3S)-3-((2-(5-fluoro-1H-pyrazolo[3,4-b]pyridin-3-yl)-7-isopropyl-7H-pyrrolo[2,3-d]pyrimidin-4-yl)amino)bicyclo[2.2.2]octane-2-carboxylic Acid], for which the EC50 with virus H1N1 A/Weiss/43 worked out at 227 pM. This EC50 and that of the compound before are within 1.5-fold of each other.

What is called EC50 is the midpoint of the concentration-response curve. Read a low EC50 as an effect from little substance. For orientation: AUC(0-inf) means the area under the concentration-time curve extrapolated to infinity. Higher therefore signals more exposure. As a reminder, the AUC(0-t) is the area under the concentration-time curve up to a stated or last time point. A higher AUC(0-t) goes with high exposure. As a reminder, the clearance is the volume of plasma or blood freed of the substance per unit of time. Read a high clearance as efficient removal.
